Assay results reported in the pKa sets of Baltruschat and Czodrowski (2020).

With `CC(C)NCC(O)COc1ccc(CCOCC2CC2)cc1` (centres undefined) as the molecule, how does the pKa read?
The pKa was 9.21.

For `OC(CNCC(O)C1CCc2cc(F)ccc2O1)C1CCc2cc(F)ccc2O1` (centres undefined), which pKa is on record?
The pKa was 8.22.

For `CNCCC=C1c2ccccc2CCc2ccccc21`, which pKa is on record?
The pKa was 10.1.

Which pKa does the source give for `CN(C)CCCN1c2ccccc2CCc2ccc(Cl)cc21` here?
The pKa was 9.38.

Which pKa does the source give for `CN(C)CCCN1c2ccccc2Sc2ccccc21` here?
The pKa was 9.28.

With `CN1CCCC(n2nc(Cc3ccc(Cl)cc3)c3ccccc3c2=O)CC1` (centres undefined) as the molecule, how does the pKa read?
Its pKa is 9.54.

Which pKa does the source give for `Cc1ccc(O)c([C@@H](CCN(C(C)C)C(C)C)c2ccccc2)c1` here?
The pKa was 9.8.

For `CC(CN1c2ccccc2Sc2ccccc21)N(C)C` (centres undefined), which pKa is on record?
Its pKa is 9.1.

With `CCOC(=O)C1(c2ccccc2)CCN(C)CC1` as the molecule, how does the pKa read?
Its pKa is 8.7.

With `CNCCCC12CCC(c3ccccc31)c1ccccc12` as the molecule, how does the pKa read?
The pKa was 10.5.

Which pKa does the source give for `CC(C)(C)NCC(O)COc1nsnc1N1CCOCC1` (centres undefined) here?
Its pKa is 8.8.

With `CNCC[C@@H](Oc1ccccc1C)c1ccccc1` as the molecule, how does the pKa read?
The pKa was 10.1.

Which pKa does the source give for `COc1ccc2c3c1O[C@H]1[C@@H](O)C=C[C@H]4[C@@H](C2)N(C)CC[C@@]341` here?
Its pKa is 8.2.

Which pKa does the source give for `CCc1nn(CCCN2CCN(c3cccc(Cl)c3)CC2)c(=O)n1CCOc1ccccc1` here?
The pKa was 6.5.

Which pKa does the source give for `Cc1ccccc1OCC(O)CNCCOc1ccc(C(N)=O)cc1` (centres undefined) here?
The pKa was 7.9.

With `CN(C)CCC=C1c2ccccc2CCc2ccccc21` as the molecule, how does the pKa read?
Its pKa is 9.4.

For `CC(C)(C)NCC(O)COc1cccc2c1C[C@H](O)[C@H](O)C2` (some centres undefined), which pKa is on record?
The pKa was 9.67.

For `CC(CCc1ccccc1)NCC(O)c1ccc(O)c(C(N)=O)c1` (centres undefined), which pKa is on record?
Its pKa is 7.4.

With `CN1CCN2c3ncccc3Cc3ccccc3C2C1` (centres undefined) as the molecule, how does the pKa read?
Its pKa is 7.3.

With `CC(C)(C)NCC(O)c1cc(O)cc(O)c1` (centres undefined) as the molecule, how does the pKa read?
Its pKa is 8.7.

Which pKa does the source give for `CNS(=O)(=O)Cc1ccc2[nH]cc(CCN(C)C)c2c1` here?
Its pKa is 9.5.

Which pKa does the source give for `O=C(NCC1CCCCN1)c1cc(OCC(F)(F)F)ccc1OCC(F)(F)F` (centres undefined) here?
Its pKa is 9.3.

Which pKa does the source give for `CC(C)NCC(O)c1ccc(NS(C)(=O)=O)cc1` (centres undefined) here?
The pKa was 9.76.

For `CCN(C)C(=O)Oc1cccc([C@H](C)N(C)C)c1`, which pKa is on record?
Its pKa is 8.99.

For `O=c1n(CCCN2CCN(c3cccc(Cl)c3)CC2)nc2ccccn12`, which pKa is on record?
The pKa was 6.79.

With `COc1ccc2c(c1)N(C[C@H](C)CN(C)C)c1ccccc1S2` as the molecule, how does the pKa read?
The pKa was 9.19.

With `CC(CN(C)C)CN1c2ccccc2CCc2ccccc21` (centres undefined) as the molecule, how does the pKa read?
Its pKa is 9.24.

Which pKa does the source give for `CC(C)NCC(O)COc1ccc(COCCOC(C)C)cc1` (centres undefined) here?
The pKa was 9.57.

For `COc1ccc([C@@H]2Sc3ccccc3N(CCN(C)C)C(=O)[C@@H]2OC(C)=O)cc1`, which pKa is on record?
The pKa was 8.06.
